Experimental data taken from patent US5840684A, “Glycopeptide antibiotic derivatives” (Eli Lilly and Company, priority 1995, dated 1998).
In brackets after ≈: the same amount, converted by molar mass.

Columns and labels:
[1] = tested on: vancomycin-susceptible enterococci; test: broth micro-dilution, mean geometric MIC; type: cell-based, Enterococcus faecium and Enterococcus faecalis; settings: enterococci, 24-hour incubation
[2] = tested on: vancomycin-resistant enterococci; test: broth micro-dilution, mean geometric MIC; type: cell-based, Enterococcus faecium and Enterococcus faecalis; settings: enterococci, 24-hour incubation
[3] = tested on: Streptococcus pneumoniae P1; test: broth micro-dilution MIC; type: cell-based
Experimental: (§1) The formula I compounds have in vitro and in vivo activity against Gram-positive pathogenic bacteria. The MIC's were determined using a standard broth micro-dilution assay.

Entercoccus faecium 180 = test: broth micro-dilution MIC; type: cell-based; settings: Entercoccus faecium 180
Experimental: as §1

[4] = tested on: Staphylococcus haemolyticus 415; test: broth micro-dilution MIC; type: cell-based
Experimental: as §1

[5] = tested on: Staphylococcus epidermidis 270; test: broth micro-dilution MIC; type: cell-based
Experimental: as §1

[6] = tested on: Enterococcus gallinarum 245; test: broth micro-dilution MIC; type: cell-based; settings: Enterococcus gallinarum 245
Experimental: as §1

[7] = tested on: Staphylococcus aureus SA1199B; type: cell-based
Experimental: (§2) The MIC's were determined using a standard broth micro-dilution assay.

[8] = tested on: Staphylococcus aureus 447; test: broth micro-dilution MIC; type: cell-based
Experimental: as §2

[9] = tested on: Staphylococcus aureus 446; test: broth micro-dilution MIC; type: cell-based
Experimental: as §2

[10] = tested on: Staphylococcus aureus SA1199A; test: broth micro-dilution MIC; type: cell-based
Experimental: as §2

[11] = tested on: Staphylococcus aureus X400; test: broth micro-dilution MIC; type: cell-based
Experimental: as §2

[12] = tested on: Staphylococcus aureus 489; test: broth micro-dilution MIC; type: cell-based
Experimental: as §2

[13] = tested on: Entercoccus faecium 180-1; test: broth micro-dilution MIC; type: cell-based
Experimental: as §2

Entercoccus faecium 276 = test: broth micro-dilution MIC; type: cell-based
Experimental: as §2

[14] = tested on: Staphylococcus haemolyticus 105; test: broth micro-dilution MIC; type: cell-based
Experimental: as §1

[15] = tested on: Streptococcus pyogenes C203; test: broth micro-dilution MIC; type: cell-based
Experimental: as §2

Entercoccus faecium 2041 = test: broth micro-dilution MIC; type: cell-based; settings: Entercoccus faecium 2041
Experimental: as §1

[16] = tested on: Staphylococcus aureus S13E; type: cell-based
Experimental: as §2

[17] = tested on: Staphylococcus aureus X778; test: broth micro-dilution MIC; type: cell-based
Experimental: as §2

[18] = tested on: Staphylococcus aureus SA1199; test: broth micro-dilution MIC; type: cell-based
Experimental: as §2

## CCOc1ccc2ccccc2c1CNC1(C)CC(OC2C(Oc3c4cc5cc3Oc3ccc(cc3Cl)C(OC3CC(C)(N)C(O)C(C)O3)C3NC(=O)C(NC(=O)C5NC(=O)C(CC(N)=O)NC(=O)C(NC(=O)C(CC(C)C)NC)C(O)c5ccc(c(Cl)c5)O4)c4ccc(O)c(c4)-c4c(O)cc(O)cc4C(C(=O)O)NC3=O)OC(CO)C(O)C2O)OC(C)C1O (stereo not drawn) [Compound 60]
[1]
  mean geometric MIC, Vancomycin Sensitive Strains: 3.0 µg/mL
[2]
  mean geometric MIC, Vancomycin Resistant Strains: 19 µg/mL
[3]
  MIC: ≤ 0.06 µg/mL
Entercoccus faecium 180
  MIC: 4 µg/mL (≈ 2.25 µM)
[4]
  MIC: 16 µg/mL (≈ 9.01 µM)
[5]
  MIC: 2 µg/mL (≈ 1.13 µM)
[6]
  MIC: 16 µg/mL (≈ 9.01 µM)
[7]
  MIC: 0.5 µg/mL (≈ 0.281 µM)
[8]
  MIC: 2 µg/mL (≈ 1.13 µM)
[9]
  MIC: 1 µg/mL (≈ 0.563 µM)
[10]
  MIC: ≤ 0.06 µg/mL
[11]
  MIC: 0.5 µg/mL (≈ 0.281 µM)
[12]
  MIC: 0.5 µg/mL (≈ 0.281 µM)
[13]
  MIC: ≤ 0.06 µg/mL
Entercoccus faecium 276
  MIC: 0.5 µg/mL (≈ 0.281 µM)

## CNC(CC(C)C)C(=O)NC1C(=O)NC(CC(N)=O)C(=O)NC2C(=O)NC3C(=O)NC(C(=O)NC(C(=O)O)c4cc(O)cc(O)c4-c4cc3ccc4O)C(OC3CC(C)(N)C(O)C(C)O3)c3ccc(c(Cl)c3)Oc3cc2cc(c3OC2OC(CO)C(O)C(O)C2OC2CC(C)(NCCc3ccc(Oc4ccccc4)cc3)C(O)C(C)O2)Oc2ccc(cc2Cl)C1O (stereo not drawn) [Compound 63]
[1]
  mean geometric MIC, Vancomycin Sensitive Strains: 0.66 µg/mL
[2]
  mean geometric MIC, Vancomycin Resistant Strains: 54 µg/mL
[3]
  MIC: ≤ 0.06 µg/mL
[4]
  MIC: 8 µg/mL (≈ 4.47 µM)
[5]
  MIC: 1 µg/mL (≈ 0.559 µM)
[6]
  MIC: 8 µg/mL (≈ 4.47 µM)
[14]
  MIC: 4 µg/mL (≈ 2.24 µM)
[7]
  MIC: 0.5 µg/mL (≈ 0.28 µM)
[8]
  MIC: 1 µg/mL (≈ 0.559 µM)
[9]
  MIC: 0.5 µg/mL (≈ 0.28 µM)
[11]
  MIC: ≤ 0.06 µg/mL
[12]
  MIC: 8 µg/mL (≈ 4.47 µM)
[15]
  MIC: ≤ 0.06 µg/mL
[13]
  MIC: ≤ 0.06 µg/mL
Entercoccus faecium 276
  MIC: 0.5 µg/mL (≈ 0.28 µM)

## CNC(CC(C)C)C(=O)NC1C(=O)NC(CC(N)=O)C(=O)NC2C(=O)NC3C(=O)NC(C(=O)NC(C(=O)O)c4cc(O)cc(O)c4-c4cc3ccc4O)C(OC3CC(C)(N)C(O)C(C)O3)c3ccc(c(Cl)c3)Oc3cc2cc(c3OC2OC(CO)C(O)C(O)C2OC2CC(C)(NCc3cc(C)cs3)C(O)C(C)O2)Oc2ccc(cc2Cl)C1O (stereo not drawn) [Compound 66]
[1]
  mean geometric MIC, Vancomycin Sensitive Strains: 0.76 µg/mL
[2]
  mean geometric MIC, Vancomycin Resistant Strains: 16 µg/mL
[3]
  MIC: ≤ 0.06 µg/mL
Entercoccus faecium 2041
  MIC: ≤ 0.06 µg/mL
Entercoccus faecium 180
  MIC: 2 µg/mL (≈ 1.17 µM)
[4]
  MIC: 8 µg/mL (≈ 4.7 µM)
[5]
  MIC: 1 µg/mL (≈ 0.587 µM)
[6]
  MIC: 8 µg/mL (≈ 4.7 µM)
[16]
  MIC: ≤ 0.06 µg/mL
[8]
  MIC: 1 µg/mL (≈ 0.587 µM)
[10]
  MIC: ≤ 0.06 µg/mL
[17]
  MIC: ≤ 0.06 µg/mL
[12]
  MIC: 1 µg/mL (≈ 0.587 µM)
[13]
  MIC: ≤ 0.06 µg/mL
Entercoccus faecium 276
  MIC: ≤ 0.06 µg/mL

## CNC(CC(C)C)C(=O)NC1C(=O)NC(CC(N)=O)C(=O)NC2C(=O)NC3C(=O)NC(C(=O)NC(C(=O)O)c4cc(O)cc(O)c4-c4cc3ccc4O)C(OC3CC(C)(N)C(O)C(C)O3)c3ccc(c(Cl)c3)Oc3cc2cc(c3OC2OC(CO)C(O)C(O)C2OC2CC(C)(NCc3ccc(Cl)c(C(=O)c4ccccc4)c3Cl)C(O)C(C)O2)Oc2ccc(cc2Cl)C1O (stereo not drawn) [Compound 133]
[1]
  mean geometric MIC, Vancomycin Sensitive Strains: 0.13 µg/mL
[2]
  mean geometric MIC, Vancomycin Resistant Strains: 4.0 µg/mL
[3]
  MIC: ≤ 0.06 µg/mL
Entercoccus faecium 180
  MIC: 1 µg/mL (≈ 0.539 µM)
[4]
  MIC: 2 µg/mL (≈ 1.08 µM)
[5]
  MIC: 1 µg/mL (≈ 0.539 µM)
[6]
  MIC: 2 µg/mL (≈ 1.08 µM)
[14]
  MIC: 2 µg/mL (≈ 1.08 µM)
[7]
  MIC: 2 µg/mL (≈ 1.08 µM)
[16]
  MIC: 1 µg/mL (≈ 0.539 µM)
[8]
  MIC: 1 µg/mL (≈ 0.539 µM)
[9]
  MIC: 2 µg/mL (≈ 1.08 µM)
[17]
  MIC: 2 µg/mL (≈ 1.08 µM)
[11]
  MIC: 0.5 µg/mL (≈ 0.269 µM)
[12]
  MIC: 1 µg/mL (≈ 0.539 µM)
[15]
  MIC: ≤ 0.06 µg/mL
[13]
  MIC: ≤ 0.06 µg/mL
Entercoccus faecium 276
  MIC: 1 µg/mL (≈ 0.539 µM)

## CNC(CC(C)C)C(=O)NC1C(=O)NC(CC(N)=O)C(=O)NC2C(=O)NC3C(=O)NC(C(=O)NC(C(=O)O)c4cc(O)cc(O)c4-c4cc3ccc4O)C(OC3CC(C)(N)C(O)C(C)O3)c3ccc(c(Cl)c3)Oc3cc2cc(c3OC2OC(CO)C(O)C(O)C2OC2CC(C)(NCc3ccc(Nc4ccccc4)cc3)C(O)C(C)O2)Oc2ccc(cc2Cl)C1O (stereo not drawn) [Compound 160]
[1]
  mean geometric MIC, Vancomycin Sensitive Strains: 0.22 µg/mL
[2]
  mean geometric MIC, Vancomycin Resistant Strains: 9.5 µg/mL
[3]
  MIC: ≤ 0.06 µg/mL
Entercoccus faecium 2041
  MIC: ≤ 0.06 µg/mL
Entercoccus faecium 180
  MIC: 0.5 µg/mL (≈ 0.282 µM)
[4]
  MIC: 8 µg/mL (≈ 4.51 µM)
[5]
  MIC: 1 µg/mL (≈ 0.564 µM)
[6]
  MIC: 8 µg/mL (≈ 4.51 µM)
[14]
  MIC: 8 µg/mL (≈ 4.51 µM)
[7]
  MIC: ≤ 0.06 µg/mL
[16]
  MIC: 1 µg/mL (≈ 0.564 µM)
[8]
  MIC: 1 µg/mL (≈ 0.564 µM)
[9]
  MIC: 2 µg/mL (≈ 1.13 µM)
[17]
  MIC: 4 µg/mL (≈ 2.26 µM)
[11]
  MIC: 4 µg/mL (≈ 2.26 µM)
[12]
  MIC: 0.21 µg/mL (≈ 0.118 µM)
[15]
  MIC: ≤ 0.06 µg/mL
[13]
  MIC: ≤ 0.06 µg/mL
Entercoccus faecium 276
  MIC: 2 µg/mL (≈ 1.13 µM)

## CNC(CC(C)C)C(=O)NC1C(=O)NC(CC(N)=O)C(=O)NC2C(=O)NC3C(=O)NC(C(=O)NC(C(=O)O)c4cc(O)cc(O)c4-c4cc3ccc4O)C(OC3CC(C)(N)C(O)C(C)O3)c3ccc(c(Cl)c3)Oc3cc2cc(c3OC2OC(CO)C(O)C(O)C2OC2CC(C)(NCc3cccc(OC(=O)c4ccccc4)c3)C(O)C(C)O2)Oc2ccc(cc2Cl)C1O (stereo not drawn) [Compound 162]
[1]
  mean geometric MIC, Vancomycin Sensitive Strains: 0.12 µg/mL
[2]
  mean geometric MIC, Vancomycin Resistant Strains: 4.8 µg/mL
[3]
  MIC: ≤ 0.06 µg/mL
Entercoccus faecium 2041
  MIC: ≤ 0.06 µg/mL
Entercoccus faecium 180
  MIC: ≤ 0.06 µg/mL
[4]
  MIC: 2 µg/mL (≈ 1.11 µM)
[5]
  MIC: ≤ 0.06 µg/mL
[6]
  MIC: 2 µg/mL (≈ 1.11 µM)
[7]
  MIC: ≤ 0.06 µg/mL
[16]
  MIC: ≤ 0.06 µg/mL
[8]
  MIC: ≤ 0.06 µg/mL
[18]
  MIC: ≤ 0.06 µg/mL
[9]
  MIC: 0.5 µg/mL (≈ 0.277 µM)
[10]
  MIC: ≤ 0.06 µg/mL
[17]
  MIC: ≤ 0.06 µg/mL
[11]
  MIC: ≤ 0.06 µg/mL
[15]
  MIC: ≤ 0.06 µg/mL
[13]
  MIC: ≤ 0.06 µg/mL
Entercoccus faecium 276
  MIC: ≤ 0.06 µg/mL

## CNC(CC(C)C)C(=O)NC1C(=O)NC(CC(N)=O)C(=O)NC2C(=O)NC3C(=O)NC(C(=O)NC(C(=O)O)c4cc(O)cc(O)c4-c4cc3ccc4O)C(OC3CC(C)(N)C(O)C(C)O3)c3ccc(c(Cl)c3)Oc3cc2cc(c3OC2OC(CO)C(O)C(O)C2OC2CC(C)(NCC3=CCC(C(C)C)CC3)C(O)C(C)O2)Oc2ccc(cc2Cl)C1O (stereo not drawn) [Compound 171]
[1]
  mean geometric MIC, Vancomycin Sensitive Strains: 0.22 µg/mL
[2]
  mean geometric MIC, Vancomycin Resistant Strains: 9.5 µg/mL
[3]
  MIC: ≤ 0.06 µg/mL
Entercoccus faecium 2041
  MIC: ≤ 0.06 µg/mL
Entercoccus faecium 180
  MIC: 1 µg/mL (≈ 0.578 µM)
[4]
  MIC: 8 µg/mL (≈ 4.63 µM)
[5]
  MIC: 1 µg/mL (≈ 0.578 µM)
[6]
  MIC: 8 µg/mL (≈ 4.63 µM)
[14]
  MIC: 4 µg/mL (≈ 2.31 µM)
[16]
  MIC: ≤ 0.06 µg/mL
[8]
  MIC: 1 µg/mL (≈ 0.578 µM)
[9]
  MIC: 1 µg/mL (≈ 0.578 µM)
[10]
  MIC: ≤ 0.06 µg/mL
[17]
  MIC: ≤ 0.06 µg/mL
[11]
  MIC: ≤ 0.06 µg/mL
[12]
  MIC: 0.5 µg/mL (≈ 0.289 µM)
[15]
  MIC: ≤ 0.06 µg/mL
[13]
  MIC: ≤ 0.06 µg/mL
Entercoccus faecium 276
  MIC: 0.125 µg/mL (≈ 0.0723 µM)
